In PubChem BioAssay (NCI):
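At the GI50, growth is halved. TGI denotes the concentration required for complete inhibition of growth.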

Experiments:
Test in all cases: NCI anticancer screen, dose series, 384-well format
[1] = tested on: 786-0 renal
[2] = tested on: ACHN renal
[3] = tested on: CAKI-1 renal
[4] = tested on: COLO 205 colon
[5] = tested on: HCC-2998 colon
[6] = tested on: HOP-62 NSCLC
[7] = tested on: HOP-92 NSCLC
[8] = tested on: HS 578T breast
[9] = tested on: HT29 colon
[10] = tested on: IGROV1 ovarian
[11] = tested on: KM12 colon
[12] = tested on: LOX IMVI melanoma
[13] = tested on: M14 melanoma
[14] = tested on: MALME-3M melanoma
[15] = tested on: MCF7 breast
[16] = tested on: MDA-MB-231 breast
[17] = tested on: MOLT-4 leukemia
[18] = tested on: NCI-H23 lung
[19] = tested on: NCI-H322M lung
[20] = tested on: NCI/ADR-RES ovarian
[21] = tested on: OVCAR-4 ovarian
[22] = tested on: OVCAR-5 ovarian
[23] = tested on: OVCAR-8 ovarian
[24] = tested on: RXF 393 renal
[25] = tested on: SF-268 CNS
[26] = tested on: SF-295 CNS
[27] = tested on: SK-MEL-28 melanoma
[28] = tested on: SNB-75 CNS
[29] = tested on: SW-620 colon
[30] = tested on: TK-10 renal
[31] = tested on: UACC-62 melanoma
[32] = tested on: UO-31 renal
[33] = tested on: A498 renal
[34] = tested on: A549 NSCLC
[35] = tested on: BT-549 breast
[36] = tested on: DU-145 prostate
[37] = tested on: EKVX NSCLC
[38] = tested on: HCT-116 colon
[39] = tested on: HCT-15 colon
[40] = tested on: HL-60(TB) leukemia
[41] = tested on: MDA-MB-435 melanoma
[42] = tested on: MDA-MB-468 breast
[43] = tested on: NCI-H226 lung
[44] = tested on: NCI-H460 NSCLC
[45] = tested on: NCI-H522 lung
[46] = tested on: OVCAR-3 ovarian
[47] = tested on: PC-3 prostate
[48] = tested on: RPMI-8226 leukemia
[49] = tested on: SF-539 CNS
[50] = tested on: SK-MEL-5 melanoma
[51] = tested on: SK-OV-3 ovarian
[52] = tested on: SN12C renal
[53] = tested on: SNB-19 CNS
[54] = tested on: SR leukemia
[55] = tested on: T-47D breast
[56] = tested on: U251 glioblastoma
[57] = tested on: UACC-257 melanoma

## Cc1ccc(C(=O)Nc2ccc(Oc3cc4cnn(C)c4cc3-c3cn[nH]c3)c(F)c2)c(=O)n1-c1ccc(F)cc1
[1]
  GI50: > 100 µM
  TGI: > 100 µM
[2]
  GI50: 6.44 µM
  TGI: > 100 µM
[3]
  GI50: 5.86 µM
  TGI: > 100 µM
[4]
  GI50: 4.91 µM
  TGI: > 100 µM
[5]
  GI50: > 100 µM
  TGI: > 100 µM
[6]
  GI50: 3.81 µM
  TGI: > 100 µM
[7]
  GI50: > 100 µM
  TGI: > 100 µM
[8]
  GI50: 10.6 µM
  TGI: > 100 µM
[9]
  GI50: 3.03 µM
  TGI: > 100 µM
[10]
  GI50: 5.27 µM
  TGI: > 100 µM
[11]
  GI50: 0.0165 µM
  TGI: > 100 µM
[12]
  GI50: 4.05 µM
  TGI: > 100 µM
[13]
  GI50: 2.56 µM
  TGI: > 100 µM
[14]
  GI50: 5.29 µM
  TGI: > 100 µM
[15]
  GI50: 5.56 µM
  TGI: > 100 µM
[16]
  GI50: > 100 µM
  TGI: > 100 µM
[17]
  GI50: 1.08 µM
  TGI: 19.8 µM
[18]
  GI50: 10.4 µM
  TGI: > 100 µM
[19]
  GI50: > 100 µM
  TGI: > 100 µM
[20]
  GI50: > 100 µM
  TGI: > 100 µM
[21]
  GI50: > 100 µM
  TGI: > 100 µM
[22]
  GI50: > 100 µM
  TGI: > 100 µM
[23]
  GI50: > 100 µM
  TGI: > 100 µM
[24]
  GI50: 2.57 µM
  TGI: > 100 µM
[25]
  GI50: 0.698 µM
  TGI: 7.36 µM
[26]
  GI50: 2.37 µM
  TGI: > 100 µM
[27]
  GI50: 7.28 µM
  TGI: > 100 µM
[28]
  GI50: 6.22 µM
  TGI: > 100 µM
[29]
  GI50: > 100 µM
  TGI: > 100 µM
[30]
  GI50: > 100 µM
  TGI: > 100 µM
[31]
  GI50: 2.42 µM
  TGI: > 100 µM
[32]
  GI50: > 100 µM
  TGI: > 100 µM

## CO[C@H]1C(=O)[C@]2(C)[C@@H](OC)C[C@H]3OC[C@@]3(OC(C)=O)[C@H]2[C@H](OC(=O)c2ccccc2)[C@]2(O)C[C@H](OC(=O)[C@H](O)[C@@H](NC(=O)OC(C)(C)C)c3ccccc3)C(C)=C1C2(C)C
[1]
  GI50: < 0.01 µM
  TGI: > 78.8 µM
[33]
  GI50: < 0.01 µM
  TGI: 44.2 µM
[34]
  GI50: < 0.01 µM
  TGI: > 55.1 µM
[2]
  TGI: > 100 µM
[35]
  GI50: < 0.01 µM
  TGI: < 0.01 µM
[3]
  GI50: < 0.0131 µM
  TGI: > 69 µM
[4]
  GI50: < 0.01 µM
  TGI: < 0.01 µM
[36]
  GI50: < 0.01 µM
  TGI: < 0.01 µM
[37]
  GI50: < 0.01 µM
  TGI: 39.8 µM
[5]
  GI50: < 0.01 µM
  TGI: < 0.01 µM
[38]
  GI50: < 0.01 µM
  TGI: > 100 µM
[39]
  GI50: < 0.01 µM
  TGI: > 100 µM
[40]
  GI50: < 0.01 µM
  TGI: < 0.01 µM
[6]
  GI50: < 0.01 µM
  TGI: > 100 µM
[7]
  GI50: 22.2 µM
  TGI: > 100 µM
[8]
  GI50: < 0.01 µM
  TGI: < 0.01 µM
[9]
  GI50: < 0.01 µM
  TGI: < 0.01 µM
[10]
  GI50: < 0.01 µM
  TGI: > 100 µM
[11]
  GI50: < 0.01 µM
  TGI: > 100 µM
[12]
  GI50: < 0.0407 µM
  TGI: 22.6 µM
[13]
  GI50: < 0.01 µM
  TGI: > 100 µM
[14]
  TGI: > 49.2 µM
[15]
  GI50: < 0.01 µM
  TGI: > 61.5 µM
[41]
  GI50: < 0.01 µM
  TGI: < 0.01 µM
[42]
  GI50: < 0.01 µM
  TGI: < 0.01 µM
[17]
  GI50: < 0.01 µM
  TGI: < 0.01 µM
[43]
  GI50: < 0.01 µM
  TGI: 18.5 µM
[18]
  GI50: < 0.01 µM
  TGI: > 100 µM
[19]
  TGI: > 100 µM
[44]
  GI50: < 0.01 µM
  TGI: < 0.01 µM
[45]
  GI50: < 0.01 µM
  TGI: < 0.01 µM
[20]
  GI50: 0.0189 µM
  TGI: 0.0548 µM
[46]
  GI50: < 0.01 µM
[21]
  GI50: < 0.01 µM
  TGI: 31.3 µM
[22]
  GI50: < 0.01 µM
  TGI: > 100 µM
[47]
  GI50: < 0.01 µM
  TGI: > 80.5 µM
[48]
  GI50: < 0.01 µM
  TGI: < 0.01 µM
[24]
  GI50: < 0.01 µM
  TGI: < 0.01 µM
[25]
  TGI: > 62.6 µM
[26]
  GI50: < 0.01 µM
[49]
  GI50: < 0.01 µM
[27]
  GI50: > 100 µM
  TGI: > 100 µM
[50]
  GI50: < 0.01 µM
  TGI: < 0.01 µM
[51]
  GI50: < 0.01 µM
  TGI: > 100 µM
[52]
  GI50: < 0.01 µM
  TGI: > 100 µM
[53]
  GI50: < 0.01 µM
  TGI: > 100 µM
[28]
  GI50: < 0.01 µM
[54]
  GI50: < 0.01 µM
  TGI: < 0.01 µM
[55]
  GI50: < 0.01 µM
  TGI: 89 µM
[30]
  GI50: < 0.01 µM
  TGI: > 100 µM
[56]
  GI50: < 0.01 µM
  TGI: 21.2 µM
[57]
  GI50: 32.7 µM
  TGI: > 100 µM
[31]
  GI50: < 0.01 µM
  TGI: > 49.7 µM
[32]
  GI50: < 0.0128 µM
  TGI: > 100 µM
